Values of other authors, collected in patent publication US20230210792A1, “USE OF A COMBINATION OF […] A CXCR-2 INHIBITORS FOR THE TREATMENT OR PREVENTION OF FAMILIAL MEDITERRANEAN FEVER (FMF) AND FLARE-UPS THEREOF” (ARISTEA THERAPEUTICS, INC., priority 2020, published 2023).

SMILES: COc1cc2c(c(OC)c1OC)-c1ccc(OC)c(=O)cc1[C@@H](NC(C)=O)CC2 [Colchicine]
- Peak concentrations occur in (time to peak) (absorbed from the gastrointestinal tract): 0.5 to 2 h
- eliminated unchanged in the urine (metabolized in the liver, excreted primarily in the feces): 10-20%
